Consider 2 molecules from ChEMBL document CHEMBL1135453, “Inhibition of feline immunodeficiency virus (FIV) replication by DNA binding polyamides” (2002).

Common to all, as to format: functional
The test system of test [1] is Feline immunodeficiency virus. Put plainly: Tested for the percentage decrease in replication of FIV-34TF10 at a concentration of 0.1 nM.
The subject of test [2] is Feline immunodeficiency virus. Put plainly: Effect on replication of FIV 34TF10env in chronically infected feline glial cell lines G355-5 at 1 nM conc; RT activity per ug/mL of protein concentration.
In test [3] the test system is Feline immunodeficiency virus. Nature of the test: Effect on replication of FIV 34TF10 in chronically infected feline glial cell lines G355-5 at 0.01 nM conc; RT activity per ug/mL of protein concentration.
Test [4] relates to Feline immunodeficiency virus. Put plainly: Effect on replication of FIV 34TF10 in chronically infected feline glial cell lines G355-5 at 0.1 nM conc; RT activity per ug/mL of protein concentration.
In test [5] the test system is Feline immunodeficiency virus. Put plainly: Effect on replication of FIV 34TF10 in chronically infected feline glial cell lines G355-5 at 0 nM conc; RT activity per ug/mL of protein concentration.
The test system of test [6] is Feline immunodeficiency virus. Nature of the test: Effect on replication of FIV 34TF10 in chronically infected feline glial cell lines G355-5 at 10000 nM conc; RT activity per ug/mL of protein concentration.
For test [7], the system named is Feline immunodeficiency virus. Nature of the test: Effect on replication of FIV 34TF10 in chronically infected feline glial cell lines G355-5 at 1000 nM conc; RT activity per ug/mL of protein concentration.
In test [8] the test system is Feline immunodeficiency virus. Nature of the test: Effect on replication of FIV 34TF10 in chronically infected feline glial cell lines G355-5 at 100 nM conc; RT activity per ug/mL of protein concentration.
Test [9] deals with Feline immunodeficiency virus. Put plainly: Effect on replication of FIV 34TF10 in chronically infected feline glial cell lines G355-5 at 10 nM conc; RT activity per ug/mL of protein concentration.
The subject of test [10] is Feline immunodeficiency virus. Put plainly: Effect on replication of FIV 34TF10 in chronically infected feline glial cell lines G355-5 at 1 nM conc; RT activity per ug/mL of protein concentration.
For test [11], the system named is Feline immunodeficiency virus. Nature of the test: Effect on replication of FIV 34TF10env in chronically infected feline glial cell lines G355-5 at 0.01 nM conc; RT activity per ug/mL of protein concentration.
For test [12], the system named is Feline immunodeficiency virus. Nature of the test: Effect on replication of FIV 34TF10env in chronically infected feline glial cell lines G355-5 at 0.1 nM conc; RT activity per ug/mL of protein concentration.
Test [13] relates to Feline immunodeficiency virus. Nature of the test: Effect on replication of FIV 34TF10env in chronically infected feline glial cell lines G355-5 at 0 nM conc; RT activity per ug/mL of protein concentration.
Test [14] deals with Feline immunodeficiency virus. Nature of the test: Effect on replication of FIV 34TF10env in chronically infected feline glial cell lines G355-5 at 10000 nM conc; RT activity per ug/mL of protein concentration.
For test [15], the system named is Feline immunodeficiency virus. Nature of the test: Effect on replication of FIV 34TF10env in chronically infected feline glial cell lines G355-5 at 1000 nM conc; RT activity per ug/mL of protein concentration.
For test [16], the system named is Feline immunodeficiency virus. Put plainly: Effect on replication of FIV 34TF10env in chronically infected feline glial cell lines G355-5 at 100 nM conc; RT activity per ug/mL of protein concentration.
Test [17] deals with Feline immunodeficiency virus. Put plainly: Effect on replication of FIV 34TF10env in chronically infected feline glial cell lines G355-5 at 10 nM conc; RT activity per ug/mL of protein concentration.

In [1], `CN(C)CCCNC(=O)c1cc(NC(=O)c2cc(NC(=O)c3cc(NC(=O)c4ccccc4C(=O)O)cn3C)cn2C)cn1C` registered a Decrease of 75%. Moreover, the Reverse transcriptase activity in test [2] came to 1600; in [3] it was 665; in [4] it was 390; in test [5] it was 1200; in [6], 950; in test [7], 480. Further, the Reverse transcriptase activity in test [8] stood at 490; in [9], 475; in test [10] it was 800; in test [11] it was 2000; in test [12] it was 1990; in test [13], 1590. For the same molecule, the Reverse transcriptase activity in test [14] is listed as 1800; in test [15] it was 2100; in [16], 1900; in test [17], 1700.

Take `Cc1nc(N)sc1C(=O)Nc1cn(C)c(C(=O)Nc2cn(C)c(C(=O)NCCCN(C)C)n2)n1`: the Decrease in test [1] is recorded as 75%. Further, the Reverse transcriptase activity is 2000 in test [2]; 675 in test [3]; 350 in test [4]; 1025 in test [5]; 950 in test [6]; 500 in test [7]. Besides, the Reverse transcriptase activity in test [8] is reported as 550; in [9], 475; in test [10], 800; in test [11], 2000; in test [12], 1500; in test [13], 2200. Besides, the Reverse transcriptase activity was 2100 in [14], 1700 in test [15], 1800 in [16] and 1500 in test [17].
